The text below walks through data of patent US20130281463A1, “DIAZA-SPIRO[5.5]UNDECANES USEFUL AS OREXIN RECEPTOR ANTAGONISTS” (NOVARTIS AG, priority 2010, published 2013).

Assay [1] deals with T1, human orexin 1 receptors (Homo sapiens, UniProt O43613).
T1 sequence (O43613 1-425): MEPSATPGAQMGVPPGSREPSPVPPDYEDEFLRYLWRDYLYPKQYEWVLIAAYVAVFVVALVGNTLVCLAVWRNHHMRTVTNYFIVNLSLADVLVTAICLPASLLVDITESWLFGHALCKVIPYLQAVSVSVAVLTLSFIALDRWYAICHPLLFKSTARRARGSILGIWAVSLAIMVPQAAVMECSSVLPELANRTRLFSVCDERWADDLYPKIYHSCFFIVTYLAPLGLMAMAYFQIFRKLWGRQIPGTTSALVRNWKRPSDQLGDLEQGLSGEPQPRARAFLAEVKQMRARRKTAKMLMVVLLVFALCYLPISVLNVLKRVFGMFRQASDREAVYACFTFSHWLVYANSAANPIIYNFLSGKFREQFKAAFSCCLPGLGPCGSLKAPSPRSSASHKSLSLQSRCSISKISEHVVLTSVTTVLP
Put plainly: Radioligand binding assay ([3H]-SB649868 competition), hOx1R. More on the design: expressed in transfected cells. Particulars: competition with about 1 nM [3H]-SB649868, cell membranes. The procedure: The cell pellet was either stored at −80° C. or used directly. Before the experiments, cell membranes were re-suspended in binding assay buffer (10 mM HEPES, 0.5% (w/v) bovine serum albumin, pH 7.5) by homogenisation with a Polytron homogeniser at 50 Hz for 20 s. Cell membranes were also used as made available by commercial providers.
Bound radioactivity was measured, and data were analysed with the program XLFIT or Graphpad Prism. Protein concentration was determined according to the Bradford/BioRad Protein Assay Kit.
In competition experiments, cell homogenates (150 μl) were incubated in assay buffer (10 mM HEPES, pH 7.5, 0.5% (w/v) bovine serum albumin, 5 mM MgCl2, 1 mM CaCl2, and tween 0.05%) for 1 h at room temperature with about 1 nM of the radioligand [^3H]-SB649868, 66 Ci/mmole, 50 μl), and with various concentrations of compounds of the invention (50 μl) in triplicates; non-specific binding was determined in the presence of almorexant (10 μM). Reactions were terminated by vacuum filtration, 3 washes of ice cold wash buffer (Tris-HCl pH 7.4/10 mM, with NaCl 154 mM). Competition data is expressed in Table 2 as Kd [μM].

Assay [2] concerns the target T2, human orexin 2 receptors (Homo sapiens, UniProt O43614).
T2 construct: expressed in transfected cells
T2 sequence (O43614 1-444): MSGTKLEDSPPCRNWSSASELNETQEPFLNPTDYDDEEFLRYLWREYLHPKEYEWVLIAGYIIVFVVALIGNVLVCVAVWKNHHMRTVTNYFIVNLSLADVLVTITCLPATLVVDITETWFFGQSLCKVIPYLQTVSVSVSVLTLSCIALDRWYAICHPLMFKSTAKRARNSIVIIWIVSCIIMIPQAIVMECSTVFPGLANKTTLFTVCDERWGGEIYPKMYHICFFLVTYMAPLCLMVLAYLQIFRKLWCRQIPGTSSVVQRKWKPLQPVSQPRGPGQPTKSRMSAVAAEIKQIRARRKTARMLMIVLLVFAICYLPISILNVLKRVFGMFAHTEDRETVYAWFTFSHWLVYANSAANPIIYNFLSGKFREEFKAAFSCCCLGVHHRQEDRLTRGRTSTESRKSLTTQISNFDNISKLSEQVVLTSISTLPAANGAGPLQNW
As to the kind of experiment: Calcium accumulation in cells (FLIPR), hOx2R. It is filed as cell-based. Particulars: inhibition of orexin A induced calcium accumulation; Cheng and Prusoff correction.
Method: (§1) Cells expressing human orexin 1 or human orexin 2 receptors, were seeded at 8,000 cells/well in 384 well black-walled clear bottom, poly-D-lysine coated plates. After 24 h, the medium was removed and cells were washed once with phosphate buffered saline and serum-deprived overnight in assay buffer (130 mM NaCl, 5.4 mM KCl, 1.8 mM CaCl2, 0.8 mM MgSO4, 0.9 mM NaH2PO4, 25 mM glucose, 20 mM HEPES, pH 7.4) containing bovine serum albumin (1% w/v).
On the day of the experiment, the cells seeded in black plates were treated with assay buffer containing the Ca^2+ sensitive fluorescent dye Fluo4-AM (2 μM), and probenecid (0.1 mM). After 1 h plates were washed twice with, and resuspended in, assay buffer containing probenecid (0.1 mM) using a multi plate washer. […] Fluorescence measurements were then continued every 1 S for 120 S followed by every 4 S for 240 S.
(§2) Compounds of formula I were tested usually in a concentration range from 10^−9 M to 10^−5M.
(§3) In the second round, performed one hour later (to allow for equilibration), Orexin A was tested either in the absence (calibration curves, Orexin A agonist controls) or in the presence of compounds of formula I to determine antagonism.

In assay [3] the target is T1, human orexin 1 receptors. As to the kind of experiment: Calcium accumulation in cells (FLIPR), hOx1R.
Method: as §1
On the day of the experiment, the cells seeded in black plates were treated with assay buffer containing the Ca^2+ sensitive fluorescent dye Fluo4-AM (2 μM), and probenecid (0.1 mM). After 1 h plates were washed twice with, and resuspended in, assay buffer containing probenecid (0.1 mM) using a multi plate washer. The plates were placed into a FLIPR II (Fluorometric Imaging Plate Reader, Molecular Devices, Sunnyvale, Calif., USA) and baseline fluorescence (fluorescence light units, FLU) was measured (5 measurements, 2 S each; laser excitation 488 nm at 0.6-1 W, CCD camera exposure 0.4 s) before addition of buffer alone (basal) or containing test compounds (either compound of formula I alone, agonist alone or agonist in the presence of various concentrations of compounds of formula I). Fluorescence measurements were then continued every 1 S for 120 S followed by every 4 S for 240 S.
as §2, §3
Inhibition data is expressed in Table 2 as Ki [μM], converted by the Cheng and Prusoff correction (Ki=IC50/1+(L/EC50)), where IC50 is the 50% inhibition value determined in concentration response inhibition curves, EC50 is the half maximal activation concentration determined for orexin A in concentration response curves and L is the concentration of orexin A used in inhibition experiments performed in with a submaximal concentration of orexin A in the presence of up to 8 increasing concentrations of compound of formula I. Inhibition data is also expressed in Table 2 as % inhibition value measured at a concentration of 10 μM of selected compounds of formula I.
The target of assay [4] is T2, human orexin 2 receptors. Put plainly: Radioligand binding assay ([3H]-SB649868 competition), hOx2R. Conditions: competition with about 1 nM [3H]-SB649868, cell membranes.
Method: For crude cell membrane preparations, cells (CHO, Chinese hamster ovary or HEK, human embryonic kidney) expressing human orexin 1 or human orexin 2 receptors, were washed with HEPES (10 mM, pH 7.5), scraped off the culture plates with the same buffer, and centrifuged at 4° C. for 5 min at 2500×g. The cell pellet was either stored at −80° C. or used directly. Before the experiments, cell membranes were re-suspended in binding assay buffer (10 mM HEPES, 0.5% (w/v) bovine serum albumin, pH 7.5) by homogenisation with a Polytron homogeniser at 50 Hz for 20 s.
Setting [5] is: read-out: FLIPR hOx1R Ki, inhibition of orexin A induced calcium accumulation, Cheng and Prusoff correction.

The structures appear in SMILES notation. Like-named read-outs stand apart in the source and are kept apart here.

As a reminder, the Kd is the concentration at which binding is half-saturated. Read a high Kd as weaker binding. By Ki is commonly meant a dissociation constant, usually derived from enzyme kinetics or from competition with a known ligand. For orientation: inhibition means the drop in the measured response relative to a control, in per cent.

`COc1cncc(N2CCC3(CCCN(Cc4c[nH]c5ccccc45)C3=O)CC2)n1` [Example 82, 2-((1H-indol-3-yl)methyl)-9-(6-methoxypyrazin-2-yl)-2,9-diazaspiro[5.5]undecan-1-one]: the values for the Kd at human orexin 1 receptors [1] and on human orexin 2 receptors [4] were greater than 10000 nM and 3160 nM, respectively. Besides, the Ki at human orexin 2 receptors [2] came to 57 nM; at human orexin 1 receptors [3] it was 856 nM.

As for `COc1ccnc(N2CCC3(CCCN(Cc4c[nH]c5ccccc45)C3=O)CC2)n1` [Example 13, 2-((1H-indol-3-yl)methyl)-9-(4-methoxypyrimidin-2-yl)-2,9-diazaspiro[5.5]undecan-1-one], the inhibitory constant (Ki) on human orexin 2 receptors [2] was 14 nM.

For `O=C1N(Cc2cccc3c2OCCO3)CCCC12CCN(c1cncc(Cl)n1)CC2` [Example 21, 9-(6-chloropyrazin-2-yl)-2-((2,3-dihydrobenzo[b][1,4]dioxin-5-yl)methyl)-2,9-diazaspiro[5.5]undecan-1-one], the Ki on human orexin 2 receptors [2] amounted to 247 nM. The inhibition at 10 µM on human orexin 1 receptors [3] (read-out: FLIPR hOx1R % inhibition value) is 26%.

As to `Cc1cc(C)nc(N2CCC3(CCCN(Cc4ccccc4-c4nc(C)no4)C3=O)CC2)n1` [Example 1, 9-(4,6-dimethylpyrimidin-2-yl)-2-(2-(3-methyl-1,2,4-oxadiazol-5-yl)benzyl)-2,9-diazaspiro[5.5]undecan-1-one], the values for the Ki at human orexin 2 receptors [2] and on human orexin 1 receptors [3] (setting [5]) were 7 nM and 1620 nM, respectively.

As for `COC(=O)c1ccc2[nH]cc(CN3CCCC4(CCN(c5nc(C)cc(C)n5)CC4)C3=O)c2c1` [Example 115, Methyl 3-((9-(4,6-dimethylpyrimidin-2-yl)-1-oxo-2,9-diazaspiro[5.5]undecan-2-yl)methyl)-1H-indole-5-carboxylate], the Ki at human orexin 2 receptors [2] is 0.7 nM; at human orexin 1 receptors [3] (setting [5]), 21 nM.

Take `COc1cc(-c2nn(C)nc2CN2CCCC3(CCN(c4nc(C)cc(C)n4)CC3)C2=O)ccn1` [Example 122, 9-(4,6-dimethylpyrimidin-2-yl)-2-((5-(2-methoxypyridin-4-yl)-2-methyl-2H-1,2,3-triazol-4-yl)methyl)-2,9-diazaspiro[5.5]undecan-1-one]: the Kd on human orexin 1 receptors [1] is 130 nM; at human orexin 2 receptors [4] it was 14 nM. Moreover, the Ki came out at 1.4 nM at human orexin 2 receptors [2] and 176 nM on human orexin 1 receptors [3].

For the compound `Cc1cc(C#N)nc(N2CCC3(CCCN(Cc4ccccc4-n4nccn4)C3=O)CC2)n1` [Example 25, 2-(2-(2-(2H-1,2,3-triazol-2-yl)benzyl)-1-oxo-2,9-diazaspiro[5.5]undecan-9-yl)-6-methylpyrimidine-4-carbonitrile], the Kd at human orexin 1 receptors [1] was greater than 10000 nM; at human orexin 2 receptors [4], 389 nM. The Ki on human orexin 2 receptors [2] is 68 nM; at human orexin 1 receptors [3], 3700 nM.
